Assay results: patent US11759433B2, “Compositions and methods for regulating the endocannabinoid system” (Sytheon Ltd, priority 2019, dated 2023)
Where two headings read alike, the source gives them in different places.

Tests used:
[1] = biological target: T1, Fatty Acid Amide Hydrolase (FAAH) (Homo sapiens, UniProt O00519); experiment: FAAH inhibitor screening assay (Cayman kit); type: biochemical
T1 construct: purchased Cayman 10005196
T1 sequence (O00519 1-579): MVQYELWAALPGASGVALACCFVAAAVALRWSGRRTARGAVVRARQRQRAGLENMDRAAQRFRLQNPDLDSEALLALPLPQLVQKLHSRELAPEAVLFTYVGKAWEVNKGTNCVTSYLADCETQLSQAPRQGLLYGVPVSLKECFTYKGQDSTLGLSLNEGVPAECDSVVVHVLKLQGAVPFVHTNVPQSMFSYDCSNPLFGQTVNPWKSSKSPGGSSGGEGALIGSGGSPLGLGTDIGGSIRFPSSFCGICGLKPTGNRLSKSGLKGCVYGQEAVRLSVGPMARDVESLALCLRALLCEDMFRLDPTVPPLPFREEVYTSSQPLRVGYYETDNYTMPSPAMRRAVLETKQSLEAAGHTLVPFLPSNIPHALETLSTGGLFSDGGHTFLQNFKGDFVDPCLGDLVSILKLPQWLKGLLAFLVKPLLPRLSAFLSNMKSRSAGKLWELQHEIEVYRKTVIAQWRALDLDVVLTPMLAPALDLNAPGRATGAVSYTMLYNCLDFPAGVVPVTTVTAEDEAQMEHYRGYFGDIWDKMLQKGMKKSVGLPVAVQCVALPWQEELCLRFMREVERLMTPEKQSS
Experimental: A 0.01 gram of sample of each of the indicated Test Samples identified in Table 3 was dissolved in 1 mL DMSO to make stock solution. […] The analysis was done following FAAH inhibitor screening assay kit (Cayman cat #10005196) protocol.

[2] = biological target: T2, Monoacyl Glycerol Lipase (MAGL) (Homo sapiens, UniProt Q99685); experiment: Monoacyl Glycerol Lipase (MAGL) inhibitory activity; type: biochemical
T2 construct: purchased Cayman 10007812
T2 sequence (Q99685 1-303): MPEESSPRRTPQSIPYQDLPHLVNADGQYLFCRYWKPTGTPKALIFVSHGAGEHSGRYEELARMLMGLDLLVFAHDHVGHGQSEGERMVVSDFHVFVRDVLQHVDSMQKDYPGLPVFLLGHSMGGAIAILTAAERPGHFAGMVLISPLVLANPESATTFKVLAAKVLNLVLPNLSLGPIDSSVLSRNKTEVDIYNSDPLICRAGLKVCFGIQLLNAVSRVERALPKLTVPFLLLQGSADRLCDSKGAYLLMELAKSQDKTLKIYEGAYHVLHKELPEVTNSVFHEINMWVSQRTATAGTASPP
Experimental: A 0.1 gram of sample of each of the indicated Test Samples identified in Table 3 was dissolved in 1 mL DMSO to make stock solution. […] Final concentration in well: 10 μL of sample, 5.6 mU MAGL (Cayman cat. #10007812), and 23.6 μM 2Arachidonoyl Glycerol (Cayman cat. #62160). This study was done by following the protocol described by J L Blankman et al. (Blankmann et., A comprehensive profile of brain enzymes that hydrolyze the endocannabinoid 2-Arachidonyl glycerol, Chem & Biol, 14(12); 1347-1356, 2007).

Cortisol = Cortisol output in RHE-conditioned medium; type: cell-based, Human; details: for Cortisol (% Control): 2 mg/cm^2 on RHE; for Cortisol (% Control) / Cortisol std MTT (% Control): 48 h; for Cortisol std MTT (% Control): standardised to MTT tissue viability
Experimental: (§1) A series of tests were conducted to assess the impact of the compositions according to the present teaching on the stress biomarkers cortisol and interleukin-8 8). The compounds and compositions to be evaluated were stored at room temperature prior to use and, for use, were solubilized in caprylic acid/caprylic triglycerides. The tests were conducted using reconstituted human epithelium-conditioned medium. Reconstituted Human Epidermis tissues were obtained from Zen-Bio (Research Triangle, NC; order #51500) and were stored o/n at 4° C. The following day the tissues were transferred to 6 well plates and allowed to equilibrate for 4 h in the medium provided by the manufacturer (ZenSkin RHE Assay Medium, lot #031620). Thereafter the medium was change with fresh medium and the Test Materials, as identified in Table 4, applied to the tissue samples in an amount of 2 mg/cm^2 with a positive displacement pipette and spread evenly on top of the tissues. The solvent was used as the negative control.
Cortisol—After 48 h of incubation, the cortisol output in the cell culture conditioned medium was measured with the Cortisol Parameter Assay Kit from RnD (Minneapolis, MN cat. #KGE008B), while tissue viability was assessed by the MTT technique, using the manufacturer's protocol and reagents.
(§2) In both studies the statistical significance was assessed with two-tail Student test. Deviations of ≥15% as compared to water control with p values below 0.05 were considered statistically significant.

IL-8 = IL-8 output in RHE-conditioned medium (sandwich ELISA); type: cell-based, Human; details: for IL-8 (% Control): 2 mg/cm^2 on RHE; for Effect on level of IL-8, in words: tissue culture conditioned medium
Experimental: as §1
IL-8—Similarly, interleukin-8 (IL-8) output in the cell culture conditioned medium was measured by sandwich ELISA using antibody pair from Invitrogen (ThermoFisher, kit cat. #CHC1303) and antibody pair from BioLegend (cat. #501101 and #501201), respectively. All colorimetric measurements were performed using Molecular Devices microplate reader MAX190 and SoftMax3.1.2PRO software.
as §2

[3] = biological target: T3, Fatty Acid Binding Protein 5 (FABP5) (Homo sapiens, UniProt Q01469); experiment: Fatty Acid Binding Protein 5 inhibitory activity (FABP-5 ELISA kit)
T3 construct: purchased Raybiotech 268-10276-1
T3 sequence (Q01469 whole entry): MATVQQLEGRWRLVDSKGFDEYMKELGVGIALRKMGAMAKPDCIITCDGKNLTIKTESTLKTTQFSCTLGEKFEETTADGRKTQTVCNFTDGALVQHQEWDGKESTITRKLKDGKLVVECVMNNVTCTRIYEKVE
Experimental: 0.1 gram of sample of each of the indicated Test Samples identified in Table 3 was dissolved in 1 mL DMSO and diluted with Diluent C from the FABP-5 ELISA Kit (Raybiotech #ELH-FABP5) to a make stock solution of 800 μg/ml. […] 50 μl of sample and 50 μl of 200 ng/ml of FABP-5 (Raybiotech #268-10276-1) was added per well for the analysis. The analysis was done following protocol of the aforementioned kit.

[4] = read-out: FAAH IC50 (converted)
[5] = read-out: MAGL IC50 (converted)

SMILES	IC50 ([1]; FAAH IC50) [µM]	IC50 [2] [µM]	Cortisol (% Control) (Cortisol; 0.1%)	Cortisol std MTT (% Control) (Cortisol; 0.1%)	Cortisol (% Control) (Cortisol; 0.5%)	Cortisol std MTT (% Control) (Cortisol; 0.5%)	Cortisol (% Control) (Cortisol; 1%)	Cortisol std MTT (% Control) (Cortisol; 1%)	Effect on level of cortisol, in words (Cortisol; higher levels)	Effect on level of cortisol, in words (Cortisol; low levels)	IL-8 (% Control) (IL-8; 0.1%)	IL-8 (% Control) (IL-8; 0.5%)	IL-8 (% Control) (IL-8; 1%)	Effect on level of IL-8, in words (IL-8)	IC50 [1, 4] [µM]	IC50 [2, 5] [µM]	IC50 [3] [µM]	Cortisol (% Control) (Cortisol; 0.25%)	Cortisol std MTT (% Control) (Cortisol; 0.25%)	IL-8 (% Control) (IL-8; 0.25%)
C=C(C)[C@@H]1CCC(C)=C[C@H]1c1c(O)cc(CCCCC)cc1O [Cannabidiol 99, Cannabidiol]	99.5	13100	72	82	84	95	134	174	increased the cortisol level	modest decrease in cortisol	103	107	108	no effect or marginally increased						
CCCCC/C=C\C/C=C\CCCCCCCC(=O)OCC [Ethyl Linoleate (Synovea ® EL), Ethyl linoleate]															9.81	7710	1490			
CCCCC/C=C\C/C=C\CCCCCCCC(=O)OCC [Ethyl Linoleate 98, Ethyl linoleate]															3.6					
C=C[C@@](C)(/C=C/c1ccc(O)cc1)CCC=C(C)C [Bakuchiol]			51	56	54	79					92	86		marginal effect in reducing	6.71	183	449	64	87	92
